From patent US20070287680A1, “Combined Active and Passive Targeting of Biologically Active Agents” (University of Utah Research Foundation, priority 2004, published 2007)
“Also recorded” adds a separate entry of the source.

What was measured:
Format in all cases: cell-based
[1] = molecular target: T1, green fluorescent protein tagged-GR (GFP-GR) (Rattus norvegicus, UniProt P06536, C656G); experiment: GFP-GR system, biorecognition (nuclear translocation of GFP tagged GR); conditions: fluorescence microscopy, 37° C., Mce6 at 20 μM and 30 μM, images up to 30 minutes
T1 construct: expressed in transfected cells
T1 sequence (P06536 1-795 C656G): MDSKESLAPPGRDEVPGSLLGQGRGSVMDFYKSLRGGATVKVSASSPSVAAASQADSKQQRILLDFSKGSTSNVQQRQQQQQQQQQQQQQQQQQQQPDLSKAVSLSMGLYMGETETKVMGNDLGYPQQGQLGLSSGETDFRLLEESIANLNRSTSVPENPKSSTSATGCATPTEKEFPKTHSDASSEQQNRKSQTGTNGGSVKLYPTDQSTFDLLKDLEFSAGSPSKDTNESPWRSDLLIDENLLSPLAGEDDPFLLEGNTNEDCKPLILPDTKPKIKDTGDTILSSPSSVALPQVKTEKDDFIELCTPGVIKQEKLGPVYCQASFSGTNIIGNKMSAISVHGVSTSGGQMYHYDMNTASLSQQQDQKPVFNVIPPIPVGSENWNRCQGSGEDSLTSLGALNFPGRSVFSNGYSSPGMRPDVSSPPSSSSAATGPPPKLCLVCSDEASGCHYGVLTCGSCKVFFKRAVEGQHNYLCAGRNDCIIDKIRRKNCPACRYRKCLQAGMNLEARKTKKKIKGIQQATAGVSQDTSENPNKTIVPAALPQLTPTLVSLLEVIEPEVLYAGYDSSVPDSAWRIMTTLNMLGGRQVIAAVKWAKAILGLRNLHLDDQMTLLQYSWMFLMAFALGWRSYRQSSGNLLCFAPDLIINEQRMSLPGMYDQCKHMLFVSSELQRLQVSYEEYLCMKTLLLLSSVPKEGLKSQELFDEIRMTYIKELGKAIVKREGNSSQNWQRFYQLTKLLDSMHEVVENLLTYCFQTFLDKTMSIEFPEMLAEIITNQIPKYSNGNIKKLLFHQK
Experimental: This system involves the generation of GFP labeled GR in the cell. The cells are then treated with the drug and the change in the localization of the fluorescently tagged GR is followed. Cells were transfected with GFP-GR plasmids as previously. Briefly, 5×10^6 cells were transfected with 2 μg of the GFP-GR plasmid plus carrier DNA using an Electrosquare porator ECM 830 system (BTX, San Diego, Calif.). The electroporation was performed using 3 pulses each of 135 V for 10 milliseconds, […]. Cells were allowed to recover on ice for 5 minutes and were then diluted with phenol red-free DMEM with 10% charcoal stripped FBS and plated on a clear cover glass (Corning no. 1, 22 mm^2) into live cell chambers (Lab-Tek II chambered cover glass with cover). These cells were incubated in cell culture conditions for 24 hrs. […] The import of GFP-receptor-conjugate complexes was monitored using an Olympus IX701F inverted fluorescence microscope and an EGFP filter set (Chroma Technology Corp.) (exciter 480 nm, emitter 510 nm, beam splitter 495 nm). Cells were maintained at 37° C. using a Nevtek ASI 400 Air Stream Incubator (variable temperature control) attached to a temperature probe as previously. Cells were photographed using an F-View Monochrome CCD camera.

[2] = test system: nucleus (DAPI nuclear marker); experiment: Confocal fluorescence microscopy, subcellular localization; conditions: 24 hours incubation at 37° C.
Experimental: Subcellular localization was determined using confocal fluorescence microscopy. 150000 cells were seeded on previously sterilized glass coverslips in 35 mm dishes 24 hours before incubation with the drug. […] The cells were then fixed with 3% paraformaldehyde for 20 minutes at room temperature. DAPI (4′,6-diamidino-2-phenylindole) (600 nM) was incubated with the cells and used as a nuclear marker. The cells were mounted with SlowFade Light Antifade medium (Molecular Probes, Eugene, Oreg.) and sealed as described previously. The cells were then imaged on a Zeiss (Thornwood, N.Y.) LSM 510 confocal imaging system with an Axioplan 2 microscope (100× plan-apo objective, NA=1.4, oil) and a titanium sapphire multiphoton laser (mesochlorin, excitation 800 nm, emission 650 nm low pass filter; DAPI, excitation 800 nm, emission 461 nm band pass filter). The settings for all the confocal systems were adjusted so that control cells yielded dark images.
In these images, DAPI is represented by […] fluorescence. […] Mce6 is stained red in color. […] These two windows separately indicate the subcellular localization of Mce6 and DAPI respectively. These 2 windows are superimposed in window D to display a composite image.

[3] = test system: murine adenocarcinoma (1471.1) cells; experiment: Cytotoxicity after illumination, WST-8 assay; conditions: incubated 4 hours, DMEM with 10% charcoal stripped FBS, illuminated 30 min, Mce6 equivalents, read-out: IC50 (μM) (Mean ± SD)
Experimental: The IC50 (concentration that inhibits growth by 50%) was determined utilizing a WST-8 assay. Four thousand cells were seeded into 96 well plates and incubated overnight in a humidified atmosphere containing 5% CO2. […] The incubation period was 10 hours in the case of the HPMA copolymer-bound Mce6 conjugates. After the period of incubation, the media containing the drug was removed and 100 μL of fresh media was added and the cells were promptly illuminated for 30 min. The light source was three ENH Tungsten halogen lamps (120 V/250 W) placed in parallel, attenuated by three band-pass interference filters (Melles Griot Co., Carlsbad, Calif.). The light energy was approximately 2 mW cm^−2 as determined using a radiometer.
After illumination, the cells were incubated in a humidified atmosphere containing 5% CO2 for 24 hours. The media was replaced with 100 μL fresh media containing 10 μL of WST-8. After two hours incubation, the absorbance was read at 450 nm with background correction at 630 nm. Untreated cells served as 100% viable cells, whereas media served as background. Percentage of viable cells was calculated by dividing the mean absorbance of each well by the absorbance of the untreated cells. Linear regression was performed utilizing the linear portion of the growth inhibition curve to determine the IC50 dose.

GR = experiment: MMTV luciferase assay; conditions: data not shown
[4] = listed as Cort-Lys-Mce6 derivative

Substance | redistribution of GFP tagged GR from the cytoplasm to the nucleus ([1]; disodium salt) | subcellular localization of Mce6 fluorescence ([2]; disodium salt) | IC50 [3] | redistribution of GFP tagged GR from the cytoplasm to the nucleus [1] | redistribution of GFP tagged GR from the cytoplasm to the nucleus [1, 4] | ability to bind the GR and induce nuclear translocation (GR) | subcellular localization of Mce6 fluorescence [2] | subcellular localization of Mce6 fluorescence [2, 4]
Mesochlorin e6 monoethylene diamine disodium salt [Mce6, reference compound] | cannot cause redistribution of the GFP tagged GR; also recorded: did not induce any change in the localization of the receptors | faint Mce6 fluorescence in the nucleus; also recorded: predominantly located in the cytoplasm | 5.3 ± 0.93 µM |  |  |  |  | 
alpha-N-(Cortisol-C17-carbamoyl)-Lysyl-Mesochlorin ethyl amide [Cort-Lys-Mce6] |  |  | 1.96 ± 0.17 µM | increase in the fluorescence level in the nucleus | able to shuttle GFP tagged GR from the cytoplasm to the nucleus | independently verified | located in the cytoplasm and in the nucleus | colocalization of Mce6 and DAPI
